Experimental data as given in ChEMBL document CHEMBL3885861, “Open TG-GATES”.

Species on record: Rattus norvegicus
Test: Open TG-GATES - Regimen: Single
Type: toxicity, organism-based, Sprague-Dawley
Parameters: regimen Single, gender Male, age 6 weeks
Conditions: in vivo, po, 0 mg/kg, route gavage, dose level Control; for APTT / Bas / Eos / Fbg / Hb / Ht / Lym / MCH / MCHC / MCV / Mono / Neu / PT / Plat / RBC / Ret / WBC: tissue Blood; for KIDNEY_L / KIDNEY_R / KIDNEY_TOTAL: tissue Kidney; for LIVER: tissue Liver; for A/G / ALP / ALT / AST / BUN / CRE / Ca / Cl / DBIL / GLC / IP / K / LDH / Na / PL / RALB / TBIL / TC / TG / TP / gamma-GTP: tissue Plasma

## CC[C@@H](CO)NCCN[C@@H](CC)CO [ETHAMBUTOL]
3 h
  TERMINAL_BW: 227 g
  APTT: 21.4 s
  Bas: 0%
  Eos: 0.8%
  Fbg: 319 mg/dL
  Hb: 13.3 g/dL
  Ht: 39.5%
  Lym: 83.8%
  MCH: 22.3 pg
  MCHC: 33.7%
  MCV: 66.2 fL
  Mono: 2%
  Neu: 12.2%
  PT: 15.9 s
  Plat: 118.8 x10_4/uL
  RBC: 597.6 x10_4/ul
  Ret: 8.3%
  WBC: 97.7 x10_2/uL
  KIDNEY_L: 1 g
  KIDNEY_R: 1 g
  KIDNEY_TOTAL: 2.1 g
  LIVER: 11.4 g
  A/G: 1.2
  ALP: 1599 IU/L
  ALT: 42.2 IU/L
  AST: 73.6 IU/L
  BUN: 14.2 mg/dL
  CRE: 0.2 mg/dL
  Ca: 10.4 mg/dL
  Cl: 106.6 meq/L
  DBIL: 0 mg/dL
  GLC: 192.4 mg/dL
  IP: 8.7 mg/dL
  K: 4.1 meq/L
  LDH: 171.6 IU/L
  Na: 144.2 meq/L
  PL: 137.2 mg/dL
  RALB: 3 g/dL
  TBIL: 0.01 mg/dL
  TC: 75.6 mg/dL
  TG: 63.8 mg/dL
  TP: 5.3 g/dL
  gamma-GTP: 1.6 IU/L
6 h
  TERMINAL_BW: 224 g
  APTT: 22.2 s
  Bas: 0%
  Eos: 0.8%
  Fbg: 301.2 mg/dL
  Hb: 13.6 g/dL
  Ht: 39.9%
  Lym: 82.6%
  MCH: 21.7 pg
  MCHC: 34.1%
  MCV: 63.8 fL
  Mono: 2.4%
  Neu: 13%
  PT: 15.6 s
  Plat: 122.5 x10_4/uL
  RBC: 624.8 x10_4/ul
  Ret: 7.5%
  WBC: 117.8 x10_2/uL
  KIDNEY_L: 1 g
  KIDNEY_R: 1 g
  KIDNEY_TOTAL: 2 g
  LIVER: 10 g
  A/G: 1.2
  ALP: 1271 IU/L
  ALT: 35 IU/L
  AST: 66.2 IU/L
  BUN: 11.2 mg/dL
  CRE: 0.2 mg/dL
  Ca: 10.3 mg/dL
  Cl: 105.8 meq/L
  DBIL: 0 mg/dL
  GLC: 200.4 mg/dL
  IP: 9.2 mg/dL
  K: 4.4 meq/L
  LDH: 176.2 IU/L
  Na: 141.8 meq/L
  PL: 134.8 mg/dL
  RALB: 2.9 g/dL
  TBIL: 0.02 mg/dL
  TC: 72 mg/dL
  TG: 82.8 mg/dL
  TP: 5.4 g/dL
  gamma-GTP: 1.6 IU/L
9 h
  TERMINAL_BW: 220 g
  APTT: 22.6 s
  Bas: 0%
  Eos: 0.6%
  Fbg: 288 mg/dL
  Hb: 13.4 g/dL
  Ht: 39.5%
  Lym: 82.6%
  MCH: 21.3 pg
  MCHC: 34%
  MCV: 62.7 fL
  Mono: 2.4%
  Neu: 13.2%
  PT: 16.5 s
  Plat: 116 x10_4/uL
  RBC: 632 x10_4/ul
  Ret: 6.9%
  WBC: 93.6 x10_2/uL
  KIDNEY_L: 1 g
  KIDNEY_R: 1 g
  KIDNEY_TOTAL: 2 g
  LIVER: 9.3 g
  A/G: 1.2
  ALP: 1394.2 IU/L
  ALT: 37.4 IU/L
  AST: 69.8 IU/L
  BUN: 10.6 mg/dL
  CRE: 0.2 mg/dL
  Ca: 10.1 mg/dL
  Cl: 107.8 meq/L
  DBIL: 0.002 mg/dL
  GLC: 180.2 mg/dL
  IP: 9 mg/dL
  K: 4.1 meq/L
  LDH: 136.8 IU/L
  Na: 142 meq/L
  PL: 118.2 mg/dL
  RALB: 3 g/dL
  TBIL: 0.024 mg/dL
  TC: 68.4 mg/dL
  TG: 37.4 mg/dL
  TP: 5.6 g/dL
  gamma-GTP: 1.2 IU/L
24 h
  TERMINAL_BW: 232.7 g
  APTT: 22.2 s
  Bas: 0%
  Eos: 0.8%
  Fbg: 311.8 mg/dL
  Hb: 13.9 g/dL
  Ht: 39.5%
  Lym: 82.4%
  MCH: 22.5 pg
  MCHC: 35.1%
  MCV: 64 fL
  Mono: 2.4%
  Neu: 13.4%
  PT: 16.4 s
  Plat: 115.4 x10_4/uL
  RBC: 618.2 x10_4/ul
  Ret: 6.9%
  WBC: 99.5 x10_2/uL
  KIDNEY_L: 1 g
  KIDNEY_R: 1 g
  KIDNEY_TOTAL: 2 g
  LIVER: 10.8 g
  A/G: 1.1
  ALP: 1625.6 IU/L
  ALT: 47.6 IU/L
  AST: 73 IU/L
  BUN: 17.2 mg/dL
  CRE: 0.2 mg/dL
  Ca: 10.6 mg/dL
  Cl: 106.8 meq/L
  DBIL: 0 mg/dL
  GLC: 199 mg/dL
  IP: 8.1 mg/dL
  K: 4.1 meq/L
  LDH: 176.8 IU/L
  Na: 142.4 meq/L
  PL: 147.2 mg/dL
  RALB: 3 g/dL
  TBIL: 0.006 mg/dL
  TC: 73.4 mg/dL
  TG: 94.6 mg/dL
  TP: 5.7 g/dL
  gamma-GTP: 1.8 IU/L
